Reference: patent publication US9988626B2, “Neurocalcin delta inhibitors and therapeutic and non-therapeutic uses thereof” (Universität Zu Köln, priority 2013, dated 2018)
“Also recorded” adds a separate entry of the source.

Legend:
zebrafish embryos = assay: Zebrafish motor axon phenotype (znp-1 staining) after morpholino or mRNA injection; assay type: in vivo; settings: 34 hpf zebrafish, smn MO 4 ng, ncald MO 2 ng
Experimental: Zebrafish were dechorionated and fixed in 4% PFA-PBS 34 hours after fertilization. Collagenase digest was performed to permeabilize the larvae for the following antibody staining. In brief, fish were stained at 4° C. over night in 500 μl PBS-T/10% FCS containing znp-1 antibody (1:300, Hybridoma Bank). After all-day washing in PBS-T/1% FCS/1% BSA (changing solution every hour) fish were stained in PBS-T/1% DMSO/10% FCS containing secondary donkey anti-mouse antibody labelled with Alexafluor 488 (1:200, Invitrogen). After repeated washing, fish were stored in 80% glycerol/20% PBS in the dark at 4° C. Microscopic analysis of fish was performed in 80% glycerol on micro slides using a fluorescence microscope (Axioskop 2, Zeiss). The length of each of the first ten motoraxons behind the yolk was analyzed and evaluated. For NSC34 cell staining cells were fixed in 4% PFA for 15 min at RT. Following fixation, cells were rinsed 1× in PBS for 5 min. After another washing step with PBS, cells were permeabilized in 0.2% Triton X in PBS for 5 min. […]
The used antisense Morpholino (MO) was designed against the translational start codon of the ncald gene (Gene Tools, LLC): 5′-[…]-3′ (SEQ ID NO: 2). […] Six hours after injection embryos were sorted according to homogeneity of the rhodamine fluorescence signal reflecting the equal distribution of the injected MO solution. […]

zebrafish larvae = assay: TEM analysis of synaptic cleft width of zebrafish NMJs; assay type: in vivo
Experimental: Whole zebrafish larvae were fixed in 4% PFA for 30 min and postfixed in 0.6% glutaraldehyde for 24 h. Larvae were embedded in Epoxy resin (Plano) and cross sections were performed according to previously described and adapted TEM protocol (Voigt et al. 2010). Thickness of semi-thin and ultra-thin sections was 0.5 μm and 0.1 μm, respectively. Image acquisition was performed as described in the supplement. Image acquisition was performed using the TEM CM10 (Philips) microscope with the Orius SC200W 1 Gatan camera and Digital Micrograph software.
48 hpf zebrafish larvae were fixed in 4% PFA for 30 min and postfixed in 0.6% glutaraldehyde for another day. Gold-labeled secondary antibodies were used for co-localization studies of Ncald and Clathrin. Image acquisition of ultra-thin sections with a thickness of […] was performed using the TEM CM10 (Philips) microscope with the Orius SC200W 1 Gatan camera and the Digital Micrograph software.
48 hpf zebrafish larvae were fixed in 4% PFA for […] and postfixed in 0.6% glutaraldehyde for another day. Samples were then prepared and embedded in resin as previously described. The thickness of semi-thin and ultra-thin sections was […], respectively. For immunogold stainings, in brie pre-stained sections were blocked and afterwards incubated with primary antibodies (anti-clathrin, 1:50, anti-NCALD, 1:50) and washed in PBS; after that sections were stained with gold-labelled secondary antibodies (donkey anti-mouse 6 nm gold, 1:100; goat anti-rabbit 20 nm gold 1:100; Abeam). Image acquisition was performed using the TEM CM10 (Philips) microscope with the Orius SC200W 1 Gatan camera and the Digital Micrograph software.

[1] = MO-injected 48 hpf fish, N=3, n=5 (FIG. 17E)

## smn MO: previously published morpholino knocking down zebrafish smn, CGACATCTTCTGCACCATTGGC (all phosphorodiamidate morpholino (PMO))
Zebrafish embryos
  Motor axon phenotype (truncation, branching): high numbers of severely truncated motor neuron axons; also recorded: massive motor axon-specific outgrowth defects
Zebrafish larvae; Example 1, FIG. 8, 34 hpf zebrafish larvae
  Width of synaptic cleft / NMJ maturation: significant reduction of the width of the synaptic cleft
Zebrafish larvae; [1]
  Width of synaptic cleft, mean: 30.26 nm
  Width of synaptic cleft, median: 23.51 nm
